The values below come from patent US9101566B2, “Fermentation product of cereal plant-derived material and immunomodulator” (KIRIN HOLDINGS KABUSHIKI KAISHA, priority 2009, dated 2015).

In experiment [1] the test system is dendritic cells induced from C57BL/6 mouse bone marrow cells with Flt-3L (mDCs, CD11c+CD11b+). The experiment can be described thus: Regulatory DC-inducing activity of 14-dehydroergosterol (Example 9). Type of experiment: cell-based. The protocol:
Regulatory DC induction activity was evaluated for 14-dehydroergosterol (14-DHE) isolated and purified from wheat bran fermented with koji as described above and subjected to structural determination. As controls, ergosterol (Wako Pure Chemical Industries, Japan) and 9(11)-dehydroergosterol (9(11)-DHE) (Sigma-Aldrich Corp.), which are ergosterol-related substances, were used. Also, as conjugated linoleic acid (CLA) that was reported in connection with the inhibition of DC activation in the past, CLA (9Z, 11E) and CLA (10E, 12Z) (both, Cayman Chemical), and linoleic acid (Wako Pure Chemical Industries, Japan) were also subjected to activity determination (J. Immunol., 175(8): 4990-8, Oct. 15, 2005). As negative controls, a sample (none) to which no compound had been administered and a sample (ctrl) to which only LPS had been administered were also subjected to activity determination.
In a manner similar to Example 2, bone marrow cells were prepared from C57BL/6 mouse thigh bone, and then dendritic cells were induced using Flt-3L. Each test substance was added simultaneously with the initiation of culture at a concentration of 1 μM, 5 μM, or 10 μM. Seven days later, LPS (from Salmonella typhosa) (Sigma-Aldrich Corp.) was added at 5 ng/mL and then 24 hours later the cells were recovered. Subsequently, the cells were stained for the following cell markers and then subjected to flow cytometry analysis. All antibodies used were produced by Becton, Dickinson and Company. CD11c^+CD11b^+ was set as a gate for mDCs and then the expression levels of CD40, CD80, CD86, I-A/I-E, and ICOS-L were measured. Also, IL-12p40 and IL-10 in culture supernatants were measured by ELISA.

For experiment [2], the system named is mDCs treated with 14-DHE co-cultured with naive CD4+ T cells. The experiment can be described thus: Antigen-non-specific Treg-inducing capacity (MLR) of DCs treated with 14-DHE (Example 10). The class given is cell-based, mouse. As to the method: In a manner similar to that in the above Examples, DCs were induced using Flt-3L from BALB/c mouse bone marrow cells in the presence of a processed product of wheat bran fermented with koji and then treated with LPS for 24 hours. mDCs were sorted from the thus obtained cells in a manner similar to that in Example 3 and then subjected to mitomycin C treatment to stop the DC proliferation.
Next, naive CD4^+ T cells were sorted from C57BL/6, DCs and the sorted cells were mixed at DC:CD4^+T=1:10 (the number of cells), and then they were co-cultured. At this time, the medium was supplemented with 0.5 ng/mL TGF-β1 (Peprotech).
Seven days layer, cells were recovered and then the proportion of FoxP3^+CD25^+ T cells in CD^+ T cells was determined using a flow cytometer (after staining of cell surface markers using anti-CD25-FITC, anti-CD3-APC-Cy7, and anti-CD4-PerCP, cell permeabilization treatment was performed using a Foxp3 Staining Buffer Set (e Bioscience) according to the manufacturer's instructions, and then intracellular Foxp3 was stained with anti-Foxp3-PE (e Bioscience)). […]
In a manner similar to that in Example 5, the Treg-inducing activity of mDCs treated with 14-DHE was measured. […]

In experiment [3] the test system is mDCs treated with 14-DHE co-cultured with OVA-specific naive CD4+ T cells. The experiment can be described thus: Antigen-specific Treg-inducing capacity of DCs treated with 14-DHE (Example 10). The class given is cell-based, mouse. As to the method: Various DCs were prepared similarly to (A). Next, naive CD4^+ T cells were sorted from DO11.10 mice (Charles River) having OVA-specific TCR, DCs were mixed with the sorted cells at DC:CD4^+ T=1:10 (the number of cells), and then the cells were co-cultured. At this time, the medium was supplemented with 0.5 ng/mL TGF-β1 and 0.1 μM OVA323-339 peptide and then culture was performed for 5 days. Subsequently, Treg generation efficiency was determined as in (A) above.
In a manner similar to that in Example 5, the Treg-inducing activity of mDCs treated with 14-DHE was measured. Similar measurement was also performed using DCs not treated with 14-DHE as a control.

The subject of experiment [4] is regional lymph node cells and spleen cells of EAE mice. The experiment can be described thus: EAE model, day 11 autopsy: inflammatory cytokines produced by lymph node and spleen cells (ELISA). Type of experiment: in vivo, mouse. As to the method: (§1) On day 0, the 35-55 peptide (MOG35-55, Operon), a glycoprotein of myelin oligodendroglial cells, as an antigen was mixed with complete Freund's adjuvant (CFA, Difco) and then the mixture was subcutaneously administered at a dose of 200 μg/animal. Subsequently, pertussis toxin (Wako Pure Chemical Industries, Japan) was intraperitoneally administered at a dose of 200 ng/animal on day 1 and day 3, thereby inducing the onset of multiple sclerosis. During days 7 to 18, 14-DHE was intraperitoneally administered at a dose of 10 μg/animal once a day. To the vehicle group, the following solvent for 14-DHE was administered: 10% ethanol (Wako Pure Chemical Industries, Japan)/10% Cremophor (Wako Pure Chemical Industries, Japan)/80% PBS (Takara, Japan).
(§2) Mice were autopsied on day 11 (when inflammation was thought to take place in vivo) to obtain biochemical data.
(1) Spleen cells were prepared and then cultured for 7 days with or without re-stimulation with 2 μM MOG. Culture supernatants were recovered. The amounts of produced IFN-γ and TNF-α were measured by ELISA.
On the technique in general: ELISA stands for enzyme-linked immunosorbent assay.

The subject of experiment [5] is CD4+ T cells in regional lymph node cells and spleen cells of EAE mice. The experiment in a line: EAE model, day 11 autopsy: intracellular cytokine positive rate in CD4+ T cells. The class given is in vivo, mouse. As to conditions: re-stimulation with 2 μM MOG. As to the method:
as §1, §2
(2) Spleen cells and regional lymph node (inguinal or axillary) cells were prepared and then cultured for 3 days with re-stimulation with 2 μM MOG. Golgi plug (1 μL/mL) (Becton, Dickinson and Company) was added and then further incubation was performed for 4.5 hours. Cells were recovered and then subjected to cell surface staining with CD4-PerCP and CD3-APC-Cy7. Next, cell membrane permeabilization treatment was performed using the Cytofix/CytoPerm kit (Becton, Dickinson and Company), intracellular cytokine staining was performed using antibodies to TNF-α-FITC, IL-17-PE, IL-10-APC, and IFN-γ-PE-Cy7, and then the positive rate of intracellular cytokines in CD4^+ T cells was measured using FACS.

Where [6] appears, read: 1, 5 or 10 μM, LPS 5 ng/mL 24 h.
[7] abbreviates: 1, 5 or 10 μM, LPS 5 ng/mL, culture supernatant.
Where [8] appears, read: re-stimulation with MOG antigen.

With `CC(C)[C@@H](C)/C=C/[C@@H](C)[C@H]1CC=C2C3=CC=C4C[C@@H](O)CC[C@]4(C)[C@H]3CC[C@@]21C` [Sample 14-DHE, ergosta-5,7,14,22-tetraen-3β-ol], in experiment [1] (setting [6]), the “expression level of CD40” value is given as “significantly decreased”, the “expression level of CD80” value is “significantly decreased”, the “expression level of CD86” value was “significantly decreased” and the “expression level of ICOS-L marker” value is recorded as “remained almost unchanged”. Further, the “expression level of MHC class II molecule I-A/I-E” value in experiment [1] (setting [6]) is given as “significantly decreased”. In experiment [1] (setting [7]), the “expression of anti-inflammatory cytokine IL-10 (ELISA)” value is recorded as “slightly increased” and the “expression of inflammatory cytokine IL-12p40 (ELISA)” value is “drastically decreased”. In addition, in experiment [1] (DCs), the “effective concentration on DCs” value was found to be 1 µM. The “generation of Treg compared with the control” value in experiment [2] was “about 2 times”. In addition, the “generation of Treg compared with the control” value in experiment [3] is on record as “about 2 times”. In addition, in experiment [4] (not re-stimulated with MOG antigen), the “IFN-γ production from regional lymph node cells” value is “significantly decrease”. Further, the “TNF-α production from spleen cells” value in experiment [4] (re-stimulated with MOG antigen) is “decreased”. Also, in experiment [4] (setting [8]), the “IFN-γ production from regional lymph node cells” value was “decreasing trend” and the “IFN-γ production from spleen cells” value is reported as “decreasing trend”. Also, the “TNF-α production from regional lymph node cells” value in experiment [4] (with or without re-stimulation with MOG antigen) was “significantly decreased”. In addition, in experiment [5], the “IFN-γ production by CD4+ T cells, lymph node cells” value is given as “significantly decrease”; the “IFN-γ production by CD4+ T cells, spleen cells” value was “significantly decrease”; the “IL-17 production by CD4+ T cells, spleen cells” value was “significantly decrease”; the “TNF-α production by CD4+ T cells, lymph node cells” value is on record as “significantly decrease”. For the same compound, the “TNF-α production by CD4+ T cells, spleen cells” value in experiment [5] is listed as “significantly decrease”.
